What is called Dmax is the greatest extent of degradation seen. Read a low Dmax as a partial loss of target. One may read the DC50 as the concentration giving 50% degradation.

Experimental findings from US20250002489A1, “BIFUNCTIONAL COMPOUNDS FOR DEGRADING ITK VIA UBIQUITIN PROTEOSOME PATHWAY” (NURIX THERAPEUTICS, INC., priority 2021, published 2025) are described below.

This assay addresses T1, ITK (Jurkat or Molt4 cells) (Homo sapiens, UniProt Q08881).
T1 construct: either human Jurkat (Clone E6-1 ATCC TIB-152) or Motl4 (ATCC CRL-1552), were plated; endogenous in cells; host or cells: Jurkat Clone E6-1 (ATCC TIB-152) or Molt4 (ATCC CRL-1552)
T1 sequence (Q08881 1-620): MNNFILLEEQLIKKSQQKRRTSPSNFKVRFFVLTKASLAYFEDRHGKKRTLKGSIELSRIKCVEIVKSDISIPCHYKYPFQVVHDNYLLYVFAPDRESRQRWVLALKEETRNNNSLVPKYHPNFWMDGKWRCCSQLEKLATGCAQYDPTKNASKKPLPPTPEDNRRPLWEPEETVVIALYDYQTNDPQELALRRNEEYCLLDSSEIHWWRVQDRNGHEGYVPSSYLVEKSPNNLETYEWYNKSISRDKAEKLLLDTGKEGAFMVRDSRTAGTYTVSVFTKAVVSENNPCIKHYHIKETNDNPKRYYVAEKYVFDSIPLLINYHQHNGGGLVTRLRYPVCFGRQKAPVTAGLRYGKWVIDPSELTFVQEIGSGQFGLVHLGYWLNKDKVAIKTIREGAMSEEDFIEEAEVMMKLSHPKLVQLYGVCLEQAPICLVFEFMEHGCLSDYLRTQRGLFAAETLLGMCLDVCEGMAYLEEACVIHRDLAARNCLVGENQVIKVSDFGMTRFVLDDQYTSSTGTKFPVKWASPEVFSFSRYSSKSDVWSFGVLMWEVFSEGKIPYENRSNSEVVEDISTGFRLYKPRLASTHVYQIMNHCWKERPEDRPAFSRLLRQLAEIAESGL
The assay is described as follows: ITK Degradation MSD (Meso Scale Discovery) Assay. The format is cell-based. To be noted: 4 or 6 hrs incubation; for DC50: best fit IC50 used as DC50. The method, then: Compound dilution series (7-point, 5-fold dilutions in DMSO, rows B—H with replicate in Column 1/2, 3/4, 5/6, 7, and 8 at 2000× the final required concentrations were prepared in 96-well plate (Falcon, cat. no. 353077). Row A, Column 1-8 were control DMSO. The 2000× solutions ranged from 2 mM to 128 nM (final assay concentration range 1 μM to […]). The 2000×solutions were added to cells in 10 μL volume, for a final DMSO concentration of 0.5% and final assay compound concentration of 1×. For the cells, either human Jurkat (Clone E6-1 ATCC TIB-152) or Motl4 (ATCC CRL-1552), were plated at 1×10^6 cells/mL, 100 μL/well ([…]) in complete RPMI (10% FBS, 1% L-glutamine). The cells were incubated with compounds 26-29 for 4 or 6 hrs at 32° C./6% CO2.
Following incubation, plates were centrifuged at 1200 rpm for 5 min. Supernatant was removed and 50 μL of cell lysis buffer (MSD Tris lysis buffer (R60TX), complete Mini EDTA-free protease inhibitor (Sigma 11836170001), Protease Inhibitor Cocktail (Sigma, P2714), Phosphatase Inhibitor Cocktail 2 and 3 (Sigma, P5726 and P0044), Benzonase (Sigma, E1014)) was added to each well. Plate was sealed and shook at 4° C. for 30 min. Plate was centrifuged and 45 μL was removed for plate assay.
Assay plate preparation: Meso Scale Discovery (MSD) multi-array sm spot 96-well plates (Goat anti-Rabbit L^45-RA), were blocked with 3% BSA blocking buffer (3% Bovine Serum Albumin (Sigma A3059)+TBS 0.2% Tween-20) for one hour with gentle rocking at room temperature. Plate was then washed with 200 μL of 1×TBST (TBS 0.2% Tween-20) three times. After the last wash, all liquid was removed and 50 μL per well of capture antibody (abcam ITK Y402-ab32507) was added to plate at a 1:1000 dilution in blocking buffer (see above). Plate was sealed and rocked at room temperature for 2 hrs. Plate was then washed three times with 200 μL of 1×TBST. After the last wash, all liquid was removed and 45 μL of cell lysate (from above) was added to plate. Plate was sealed and rocked overnight at 4° C. The next day, cell lysates were removed, and assay plate was washed three times with 200 μL of 1×TBST. After the last wash, liquid was removed and detection antibody (CST ITK (2F12) #2380) was added at 50 μL per well at a dilution of 1:1000 in blocking buffer. Plate was sealed and rocked at room temperature for 2 hrs. Plate was washed three times with 200 μL of 1×TBST. After the last wash, all liquid was removed, MSD […] sulfo tag (R32AC-1) was diluted to 1:1000 in blocking buffer. 50 μL was added to each well on the plate. Plate was sealed and incubated at room temperature for one hour. Plate was washed three times with 200 μL of 1×TBST. After last wash, all liquid was removed and 150 μL of 1×MSD Read Buffer T (R92PC) was then added to each well for ECL read out.
For reading ECL signal, plate was read on a Meso Scale Discovery (MSD) MESO Sector S 600 plate reader. Percent ITK was then calculated as described below.
Percent ITK remaining per sample was calculated as follows: […]
Using Graphpad Prism, % ITK remaining values were plotted as a function of compound concentration. To determine DC50 and Dmax values, resulting curves were fit to the Prism curve-fitting equation “log(inhibitor) vs response−Variable slope (four parameters)” (reported best fit value IC50 used as DC50).

`Cc1ncsc1-c1ccc([C@H](C)NC(=O)[C@@H]2C[C@@H](O)CN2C(=O)[C@@H](NC(=O)CCOCCOCCC(=O)N2CC([C@@H](c3ccccc3)n3cc(NC(=O)c4n[nH]c5c4C[C@@H]4C(F)(F)[C@]4(C)C5)cn3)C2)C(C)(C)C)cc1` [Compound 30, (4aS,5aR)-5,5-difluoro-N-(1-((S)-(1-(3-(2-(3-(((S)-1-((2S,4R)-4-hydroxy-2-(((S)-1-(4-(4-methylthiazol-5-yl)phenyl)ethyl)carbamoyl)pyrrolidin-1-yl)-3,3-dimethyl-1-oxobutan-2-yl)amino)-3-oxopropoxy)ethoxy)propanoyl)azetidin-3-yl)(phenyl)methyl)-1H-pyrazol-4-yl)-5a-methyl-1,4,4a,5,5a,6-hexahydrocyclopropa[f]indazole-3-carboxamide] gave a Dmax of 86.3% and a DC50 of 38.8 nM.
The molecule `CN[C@@H](C)C(=O)N[C@H](C(=O)N1CCC[C@H]1c1nc(C(=O)c2cccc(OCCCCN3CC([C@@H](c4ccccc4)n4cc(NC(=O)c5n[nH]c6c5C[C@@H]5C(F)(F)[C@]5(C)C6)cn4)C3)c2)cs1)C1CCCCC1` [Compound 7, (4aS,5aR)—N-(1-((S)-(1-(4-(3-(2-((S)-1-((S)-2-cyclohexyl-2-((S)-2-(methylamino)propanamido)acetyl)pyrrolidin-2-yl)thiazole-4-carbonyl)phenoxy)butyl)azetidin-3-yl)(phenyl)methyl)-1H-pyrazol-4-yl)-5,5-difluoro-5a-methyl-1,4,4a,5,5a,6-hexahydrocyclopropa[f]indazole-3-carboxamide] displayed a half-maximal degradation concentration (DC50) of 4.77 nM.
In the case of `CN[C@@H](C)C(=O)N[C@H](C(=O)N1CCC[C@H]1c1nc(C(=O)c2cccc(OCCCCCN3CC([C@@H](c4ccccc4)n4cc(NC(=O)c5n[nH]c6c5C[C@@H]5C(F)(F)[C@]5(C)C6)cn4)C3)c2)cs1)C1CCCCC1` [Compound 10, (4aS,5aR)—N-(1-((S)-(1-(5-(3-(2-((S)-1-((S)-2-cyclohexyl-2-((S)-2-(methylamino)propanamido)acetyl)pyrrolidin-2-yl)thiazole-4-carbonyl)phenoxy)pentyl)azetidin-3-yl)(phenyl)methyl)-1H-pyrazol-4-yl)-5,5-difluoro-5a-methyl-1,4,4a,5,5a,6-hexahydrocyclopropa[f]indazole-3-carboxamide], half-maximal degradation (DC50) was put at 22.2 nM.
Molecule `CN[C@@H](C)C(=O)N[C@H](C(=O)N1CCC[C@H]1c1nc(C(=O)c2cccc(OCCCCCCN3CC([C@@H](c4ccccc4)n4cc(NC(=O)c5n[nH]c6c5C[C@@H]5C(F)(F)[C@]5(C)C6)cn4)C3)c2)cs1)C1CCCCC1` [Compound 9, (4aS,5aR)—N-(1-((S)-(1-(6-(3-(2-((S)-1-((S)-2-cyclohexyl-2-((S)-2-(methylamino)propanamido)acetyl)pyrrolidin-2-yl)thiazole-4-carbonyl)phenoxy)hexyl)azetidin-3-yl)(phenyl)methyl)-1H-pyrazol-4-yl)-5,5-difluoro-5a-methyl-1,4,4a,5,5a,6-hexahydrocyclopropa[f]indazole-3-carboxamide] returned a DC50 of 52.9 nM.
The molecule `Cc1ncsc1-c1ccc(CNC(=O)[C@@H]2C[C@@H](O)CN2C(=O)[C@@H](NC(=O)CCOCCOCCOCCOCCN2CC([C@@H](c3ccccc3)n3cc(NC(=O)c4n[nH]c5c4C[C@@H]4C(F)(F)[C@]4(C)C5)cn3)C2)C(C)(C)C)cc1` [Compound 12, (4aS,5aR)-5,5-difluoro-N-(1-((S)-(1-((S)-17-((2S,4R)-4-hydroxy-2-((4-(4-methylthiazol-5-yl)benzyl)carbamoyl)pyrrolidine-1-carbonyl)-18,18-dimethyl-15-oxo-3,6,9,12-tetraoxa-16-azanonadecyl)azetidin-3-yl)(phenyl)methyl)-1H-pyrazol-4-yl)-5a-methyl-1,4,4a,5,5a,6-hexahydrocyclopropa[f]indazole-3-carboxamide] displayed a DC50 of 114 nM.
As for `Cc1ncsc1-c1ccc([C@H](C)NC(=O)[C@@H]2C[C@@H](O)CN2C(=O)[C@@H](NC(=O)c2ccc(N3CCC(C(=O)N4CC([C@@H](c5ccccc5)n5cc(NC(=O)c6n[nH]c7c6C[C@@H]6C(F)(F)[C@]6(C)C7)cn5)C4)CC3)cn2)C(C)(C)C)cc1` [Compound 31, (4aS,5aR)-5,5-difluoro-N-(1-((S)-(1-(1-(6-(((S)-1-((2S,4R)-4-hydroxy-2-(((S)-1-(4-(4-methylthiazol-5-yl)phenyl)ethyl)carbamoyl)pyrrolidin-1-yl)-3,3-dimethyl-1-oxobutan-2-yl)carbamoyl)pyridin-3-yl)piperidine-4-carbonyl)azetidin-3-yl)(phenyl)methyl)-1H-pyrazol-4-yl)-5a-methyl-1,4,4a,5,5a,6-hexahydrocyclopropa[f]indazole-3-carboxamide], the Dmax was 88.8% and the DC50 is 30.1 nM.
The molecule `CN[C@@H](C)C(=O)N[C@H](C(=O)N1C[C@@H](NC(=O)CCOCCOCCOCCOCCC(=O)N2CC([C@@H](c3ccccc3)n3cc(NC(=O)c4n[nH]c5c4C[C@@H]4C(F)(F)[C@]4(C)C5)cn3)C2)C[C@H]1C(=O)N[C@@H]1CCCc2ccccc21)C1CCCCC1` [Compound 2, (4aS,5aR)—N-(1-((S)-(1-(16-(((3S,5S)-1-((S)-2-cyclohexyl-2-((S)-2-(methylamino)propanamido)acetyl)-5-(((R)-1,2,3,4-tetrahydronaphthalen-1-yl)carbamoyl)pyrrolidin-3-yl)amino)-16-oxo-4,7,10,13-tetraoxahexadecanoyl)azetidin-3-yl)(phenyl)methyl)-1H-pyrazol-4-yl)-5,5-difluoro-5a-methyl-1,4,4a,5,5a,6-hexahydrocyclopropa[f]indazole-3-carboxamide] showed a half-maximal degradation concentration (DC50) of 79.7 nM.
Regarding `Cc1ncsc1-c1ccc([C@H](C)NC(=O)[C@@H]2C[C@@H](O)CN2C(=O)[C@@H](NC(=O)CN2CCN(CC(=O)N3CC([C@@H](c4ccccc4)n4cc(NC(=O)c5n[nH]c6c5C[C@@H]5C(F)(F)[C@]5(C)C6)cn4)C3)CC2)C(C)(C)C)cc1` [Compound 24, (4aS,5aR)-5,5-difluoro-N-(1-((S)-(1-(2-(4-(2-(((S)-1-((2S,4R)-4-hydroxy-2-(((S)-1-(4-(4-methylthiazol-5-yl)phenyl)ethyl)carbamoyl)pyrrolidin-1-yl)-3,3-dimethyl-1-oxobutan-2-yl)amino)-2-oxoethyl)piperazin-1-yl)acetyl)azetidin-3-yl)(phenyl)methyl)-1H-pyrazol-4-yl)-5a-methyl-1,4,4a,5,5a,6-hexahydrocyclopropa[f]indazole-3-carboxamide], the Dmax is 93% and the 50% degradation concentration (DC50) was found to be 92.7 nM.
